From patent US11667651B2, “Aminopyridine derivatives as phosphatidylinositol phosphate kinase inhibitors” (HiberCell, Inc., priority 2017, dated 2023)

Columns and labels:
Format in all cases: biochemical
[1] = target: T1, PIP4K2B (Homo sapiens, UniProt P78356); test: Trans-FI P kinase assay PIP4K2B (Table 4); conditions: compounds listed under IC50 bins; read-out: Trans-FI P kinase assays: PIP4K2B IC50
T1 construct: made in house; host or cells: E. coli
T1 sequence (P78356 1-416): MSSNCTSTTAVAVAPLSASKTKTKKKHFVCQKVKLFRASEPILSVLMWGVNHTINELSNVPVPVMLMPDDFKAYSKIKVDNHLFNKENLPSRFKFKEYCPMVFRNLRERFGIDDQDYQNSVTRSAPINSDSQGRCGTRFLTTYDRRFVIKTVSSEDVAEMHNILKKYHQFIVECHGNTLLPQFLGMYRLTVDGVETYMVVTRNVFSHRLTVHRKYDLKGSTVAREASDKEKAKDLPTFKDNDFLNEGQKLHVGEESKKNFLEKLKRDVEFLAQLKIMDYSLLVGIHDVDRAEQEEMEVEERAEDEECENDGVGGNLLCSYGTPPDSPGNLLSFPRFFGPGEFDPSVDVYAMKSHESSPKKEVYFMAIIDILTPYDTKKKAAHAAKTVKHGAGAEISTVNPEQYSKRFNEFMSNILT
In short: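 Transcreener FI detection (Ex 584/Em 623) of GDP, converted via calibration curve, gives IC50 from residual activity versus log concentration (highest 4.8 μM). Reaction: 80 μM PI5P plus DOPE carrier, 100 μM GTP, 5 nM GST-tagged enzyme, pH 7.3 HEPES with MgCl2 and 5% DMSO, 2 h after 1 h enzyme-compound preincubation at 27° C.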

[2] = target: T2, PIP4K2A (Homo sapiens, UniProt P48426); test: ADP-glo kinase assay PIP4K 2A (Table 3); set-up: made in house; host or cells: E. coli; conditions: compounds listed under IC50 bins
T2 sequence (P48426 1-406): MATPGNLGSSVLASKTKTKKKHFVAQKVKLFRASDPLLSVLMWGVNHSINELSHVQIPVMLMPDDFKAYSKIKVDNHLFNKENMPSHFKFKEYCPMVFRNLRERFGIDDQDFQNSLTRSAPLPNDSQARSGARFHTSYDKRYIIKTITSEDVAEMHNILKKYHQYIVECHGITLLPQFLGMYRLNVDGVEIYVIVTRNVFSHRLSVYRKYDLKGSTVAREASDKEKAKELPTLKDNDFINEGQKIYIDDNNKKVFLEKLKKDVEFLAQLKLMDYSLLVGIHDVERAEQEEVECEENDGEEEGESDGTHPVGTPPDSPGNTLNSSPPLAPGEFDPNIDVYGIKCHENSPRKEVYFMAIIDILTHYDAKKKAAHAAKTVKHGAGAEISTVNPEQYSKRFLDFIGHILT
Procedure: Dilution series of the compounds were prepared in DMSO at 100 times the final assay concentration (n1=n0/3 in 10 points). The compounds were further diluted to three times the assay concentration in assay buffer (20 mM MOPS pH 7.2, 25 mM magnesium chloride, 0.005% Tween 20). 6 μL of the diluted compounds were added to a 384 well assay plate followed by 9 μL of a mix consisting of 4 nM PIP4K2A (full length protein, SignalChem) and 100 μM PI(5)P diC8 (Tebu-Bio). Enzyme and compounds were pre-incubated at room temperature for 15 minutes.
Then 3 μL of a solution containing 60 μM ATP (Promega) in assay buffer was added to the wells containing compound and enzyme and mixing was performed by pipetting several times. The reaction was incubated at room temperature for 1 h. Then 18 μL of ADP-Glo™ Reagent (Promega) was added to stop the kinase reaction and deplete the unconsumed ATP, mixing was performed by pipetting several times. The plate was incubated at room temperature for 40 minutes before addition of 36 μL of Kinase Detection Reagent (Promega) to convert ADP to ATP and introduce luciferase and luciferin to detect ATP. The reaction was incubated at room temperature for 40 minutes before the luminescence was measured in a in a Victor 3V 1420 multilabel counter (Perkin Elmer).
Percent inhibition of the compounds as compared to dimethyl sulfoxide treated control samples was calculated. Compound concentration versus percent inhibition were fitted to generate IC50 values. […]

[3] = target: T2, PIP4K2A; test: Kinase Assay PIP4K2 A (Table 2); set-up: 4 nM PIP4K2A (full length protein, SignalChem); purchased SignalChem; conditions: compounds listed under IC50 bins
In short: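 ADP-Glo luminescent read-out after 1 h room-temperature kinase reaction, started with 60 μM ATP solution following 15 min compound pre-incubation. Enzyme/substrate mix: 4 nM full-length PIP4K2A plus 100 μM PI(5)P diC8; buffer MOPS pH 7.2 with 25 mM MgCl2 and Tween 20. IC50 from 10-point, 3-fold titrations normalized to DMSO.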

Row | Compound | IC50 [1] | IC50 [2] | IC50 [3]
1 | CN1CCC(c2ccc(-c3ccc(Nc4cnc5c(c4)N4C(=O)CC[C@@H]4CO5)nc3)cc2)C1=O (stereo partly drawn) [Example 269, (6aR)-2-((5-(4-(1-methyl-2-oxopyrrolidin-3-yl)phenyl)pyridin-2-yl)amino)-6,6a,7,8-tetrahydro-9H-pyrido[2,3-b]pyrrolo[1,2d][1,4]oxazin-9-one] | > 1000 nM | > 1000 nM | 
2 | C[C@@]1(O)C[C@H]2COc3ncc(Nc4ccc(-c5ccc(N6CCCC6=O)c(F)c5)cn4)cc3N2C1=O [Example 270, (6aS,8R)-2-((5-(3-fluoro-4-(2-oxopyrrolidin-1-yl)phenyl)pyridin-2-yl)amino)-8-hydroxy-8-methyl-6,6a,7,8-tetrahydro-9H-pyrido[2,3-b]pyrrolo[1,2-d][1,4]oxazin-9-one] | 10 to 100 nM | 10 to 100 nM | 
3 | CC1C[C@H]2COc3ncc(Nc4ccc(-c5ccc(N6CCCC6=O)cc5)cn4)cc3N2C1=O (stereo partly drawn) [Example 259, (6aS)-8-methyl-2-((5-(4-(2-oxopyrrolidin-1-yl)phenyl)pyridin-2-yl)amino)-6,6a,7,8-tetrahydro-9H-pyrido[2,3-b]pyrrolo[1,2-d][1,4]oxazin-9-one] | 10 to 100 nM | 10 to 100 nM | 
4 | CCOc1ccc(C(=O)Nc2cncc(Nc3ccc(-c4ccc(N5CCCC5=O)cc4)cn3)c2)cn1 [Example 249, 6-ethoxy-N-(5-((5-(4-(2-oxopyrrolidin-1-yl)phenyl)pyridin-2-yl)amino)pyridin-3-yl)nicotinamide] | 10 to 100 nM | 1 to 10 nM | 
5 | O=C(Nc1cncc(Nc2ccc(-c3ccc(N4CCCC4=O)cc3)cn2)c1)C1CC1c1ccccc1 (stereo not shown) [Example 247, N-(5-((5-(4-(2-oxopyrrolidin-1-yl)phenyl)pyridin-2-yl)amino)pyridin-3-yl)-2-phenylcyclopropane-1-carboxamide] | 10 to 100 nM | 1 to 10 nM | 
6 | CC1(C)C[C@H]2COc3ncc(Nc4ccc(-c5ccc(N6CCCC6=O)cc5)cn4)cc3N2C1=O [Example 255, (S)-8,8-dimethyl-2-((5-(4-(2-oxopyrrolidin-1-yl)phenyl)pyridin-2-yl)amino)-6,6a,7,8-tetrahydro-9H-pyrido[2,3-b]pyrrolo[1,2-d][1,4]oxazin-9-one] | 10 to 100 nM | 1 to 10 nM | 
7 | CN(C)C/C=C/C(=O)NCC(=O)Nc1ccc(CN2CCN(c3cncc(Nc4ccc(-c5ccc(N6CCCC6=O)cc5)cn4)c3)C2=O)cc1 [Example 172, (E)-4-(dimethylamino)-N-(2-oxo-2-((4-((2-oxo-3-(5-((5-(4-(2-oxopyrrolidin-1-yl)phenyl)pyridin-2-yl)amino)pyridin-3-yl)imidazolidin-1-yl)methyl)phenyl)amino)ethyl)but-2-enamide] | 10 to 100 nM | 1 to 10 nM | 
8 | CC1CN(C(=O)Nc2cncc(Nc3ccc(-c4ccc(N5CCCC5=O)cc4)cn3)c2)CCN1 (stereo not shown) [Example 256, 3-methyl-N-(5-((5-(4-(2-oxopyrrolidin-1-yl)phenyl)pyridin-2-yl)amino)pyridin-3-yl)piperazine-1-carboxamide] | 10 to 100 nM | 10 to 100 nM | 
9 | CN(C)CCCC(=O)Nc1ccc(C(=O)Nc2cncc(Nc3ccc(-c4ccc(N5CCCC5=O)cc4)cn3)c2)cc1 [Example 168, 4-(4-(dimethylamino)butanamido)-N-(5-((5-(4-(2-oxopyrrolidin-1-yl)phenyl)pyridin-2-yl)amino)pyridin-3-yl)benzamide] | 10 to 100 nM | 10 to 100 nM | 
10 | O=C(Nc1cncc(Nc2ccc(-c3ccc(N4CCCC4=O)cc3)cn2)c1)N1CCOC(C2CC2)C1 (stereo not shown) [Example 262, 2-cyclopropyl-N-(5-((5-(4-(2-oxopyrrolidin-1-yl)phenyl)pyridin-2-yl)amino)pyridin-3-yl)morpholine-4-carboxamide] | 10 to 100 nM | 100 to 1000 nM | 
11 | Cc1cc(-c2ccc(N3CCCC3=O)cc2)cnc1Nc1cnc2c(c1)N1C(=O)CC[C@H]1CO2 [Example 194, (S)-2-((3-methyl-5-(4-(2-oxopyrrolidin-1-yl)phenyl)pyridin-2-yl)amino)-6,6a,7,8-tetrahydro-9H-pyrido[2,3-b]pyrrolo[1,2-d][1,4]oxazin-9-one] | > 1000 nM | > 1000 nM | 

Next, values leading:

Row | IC50 [1] | IC50 [2] | IC50 [3] | Compound
12 | 10 to 100 nM | 10 to 100 nM | 100 to 1000 nM | CNC(=O)c1cccc2ncc(Nc3ccc(-c4ccc(N5CCCC5=O)cc4)cn3)cc12 [Example 146, N-methyl-3-((5-(4-(2-oxopyrrolidin-1-yl)phenyl)pyridin-2-yl)amino)quinoline-5-carboxamide]
13 | 1 to 10 nM | ≤ 1 nM |  | COc1cc(Nc2cnc3c(c2)N2C(=O)C4(CC4)C[C@H]2CO3)ncc1-c1ccc(N2CCCC2=O)cc1 [Example 212, (S)-2′-((4-methoxy-5-(4-(2-oxopyrrolidin-1-yl)phenyl)pyridin-2-yl)amino)-6a′,7′-dihydro-6′H,9′H-spiro[cyclopropane-1,8′-pyrido[2,3-b]pyrrolo[1,2-d][1,4]oxazin]-9′-one]
14 | 10 to 100 nM | 1 to 10 nM |  | O=C1CCCN1c1ccc(-c2cnc(Nc3cnc4c(c3)N3C(=O)CC[C@H]3CO4)cc2C2CC2)cc1F [Example 182, (S)-2-((4-cyclopropyl-5-(3-fluoro-4-(2-oxopyrrolidin-1-yl)phenyl)pyridin-2-yl)amino)-6,6a,7,8-tetrahydro-9H-pyrido[2,3-b]pyrrolo[1,2-d][1,4]oxazin-9-one]
15 | 10 to 100 nM | 1 to 10 nM |  | CC(C)c1cc(Nc2cnc3c(c2)N2C(=O)CC[C@H]2CO3)ncc1-c1ccc(N2CCCC2=O)c(F)c1 [Example 181, (S)-2-((5-(3-fluoro-4-(2-oxopyrrolidin-1-yl)phenyl)-4-isopropylpyridin-2-yl)amino)-6,6a,7,8-tetrahydro-9H-pyrido[2,3-b]pyrrolo[1,2-d][1,4]oxazin-9-one]
16 | 1 to 10 nM | 1 to 10 nM |  | Cc1cc(N2CCCC2=O)ccc1-c1cnc(Nc2cnc3c(c2)N2C(=O)C4(CC4)C[C@H]2CO3)nc1 [Example 203, (S)-2′-((5-(2-methyl-4-(2-oxopyrrolidin-1-yl)phenyl)pyrimidin-2-yl)amino)-6a′,7′-dihydro-6′H,9′H-spiro[cyclopropane-1,8′-pyrido[2,3-b]pyrrolo[1,2-d][1,4]oxazin]-9′-one]
17 | 1 to 10 nM | 1 to 10 nM |  | O=C1CCCN1c1ccc(-c2ccc(Nc3cnc4c(c3)N3C(=O)C5(CC5)C[C@H]3CO4)nc2)cc1 [Example 260, (S)-2′-((5-(4-(2-oxopyrrolidin-1-yl)phenyl)pyridin-2-yl)amino)-6a′,7′-dihydro-6′H,9′H-spiro[cyclopropane-1,8′-pyrido[2,3-b]pyrrolo[1,2-d][1,4]oxazin]-9′-one]
18 | 1 to 10 nM | ≤ 1 nM |  | O=C1CCCN1c1ccc(-c2cnc(Nc3cnc4c(c3)N3C(=O)C5(CC5)C[C@H]3CO4)cc2C2CC2)cc1 [Example 211, (S)-2′-((4-cyclopropyl-5-(4-(2-oxopyrrolidin-1-yl)phenyl)pyridin-2-yl)amino)-6a′,7′-dihydro-6′H,9′H-spiro[cyclopropane-1,8′-pyrido[2,3-b]pyrrolo[1,2-d][1,4]oxazin]-9′-one]
